Experimental data taken from patent US20240239759A1, “ISOXAZOLINE COMPOSITIONS AND THEIR USE AS ANTIPARASITICS” (Intervet Inc., priority 2007, published 2024).
Like-named read-outs stand apart in the source and are kept apart here.

Test system: cat fleas (Ctenocephalides felis)
Assay: Efficacy of various isoxazolines against cat fleas on mice (Example 3)
Assay type: in vivo
Conditions: for pest or weed control at 20 mg/kg: Ctenocephalides felis, po, read-out: Flea inhibition relative to negative control
Method: In this experiment, mice were randomly assigned to a treatment group or a negative control (untreated) group. Each group consisted of three mice. The mice in the treatment groups were orally administered 20 mg/kg bodyweight of various isoxazolines dissolved in 7% DMF-premix and 93% purified water (aqua ad injectabilia). The application volume of these treatments was 0.01 mL/g bodyweight. One hour after treatment, each mouse was sedated and generally infested (whole body) with 30 vital, adult fleas (C. felis). To achieve this, the sedated mice were placed into an infestation-jar, and the fleas were placed directly onto the fur. After approximately 30 minutes of feeding, fleas were recovered from the mice. Assessments for inhibition and mortality were conducted 1 hr, 24 hr, and 48 hr after each infestation. The efficacy was calculated as the percentage of inhibited fleas in the treatment groups relative to the negative control group.

[1] = 1 h, mice, oral 20 mg/kg, infested 1 hr after treatment, 1 hr after infestation
[2] = 24 h, mice, oral 20 mg/kg, infested 1 hr after treatment, 24 hr after infestation
[3] = 48 h, mice, oral 20 mg/kg, infested 1 hr after treatment, 48 hr after infestation
[4] = mice, oral 20 mg/kg, infested 1 hr after treatment, 1 hr after infestation

SMILES	pest or weed control at 20 mg/kg [1]	pest or weed control at 20 mg/kg [2]	pest or weed control at 20 mg/kg [3]	pest or weed control at 20 mg/kg (1 h)	pest or weed control at 20 mg/kg (24 h)	pest or weed control at 20 mg/kg (48 h)	Flea inhibition relative to negative control [4]
Cc1cc(C2=NO[C@@](c3cc(Cl)cc(Cl)c3)(C(F)(F)F)C2)ccc1C(=O)NCC(=O)NCC(F)(F)F (stereo in doubt) [Compound 17-1]	100%	100%	100%	–	–	–	–
Cc1cc(C2=NOC(CCl)(c3cc(Cl)cc(Cl)c3)C2)ccc1C(=O)NCc1ccccn1 (stereo not shown) [Compound 5-13]	16.7%	18.9%	18.9%	–	–	–	–
CCc1cc(C2=NOC(c3cc(Cl)cc(Cl)c3)(C(F)(F)F)C2)ccc1C(=O)NCC(F)(F)F (stereo not shown) [Compound 5-15]	0%	31.1%	36.7%	–	–	–	–
COC(=O)N(C)C(=O)c1ccc(C2=NOC(c3cc(Cl)cc(Cl)c3)(C(F)(F)F)C2)cc1C (stereo not shown) [Compound 5-16]	0%	46.7%	54.4%	–	–	–	–
COC(=O)N(C(=O)c1ccc(C2=NOC(c3cc(Cl)cc(Cl)c3)(C(F)(F)F)C2)cc1C)c1cnc(Cl)cn1 (stereo not shown) [Compound 5-17]	0%	36.7%	41.1%	–	–	–	–
Cc1cc(C2=NOC(c3cc(Cl)cc(Cl)c3)(C(F)(F)F)C2)ccc1C(=O)N(C(=O)C(C)C)c1ncc(C#N)cn1 (stereo not shown) [Compound 5-18]	0%	54.4%	54.4%	–	–	–	–
COC(=O)N(Cc1ccccn1)C(=O)c1ccc(C2=NOC(c3cc(Cl)cc(Cl)c3)(C(F)(F)F)C2)cc1C (stereo not shown) [Compound 5-19]	0%	90%	94.4%	–	–	–	–
COC(=O)N(C)C(=O)c1ccc(C2=NOC(c3cc(Cl)cc(Cl)c3)(C(F)(F)F)C2)cc1I (stereo not shown) [Compound 5-20]	4.4%	96.7%	97.8%	–	–	–	–
CCN(C(=O)c1ccc(C2=NOC(c3cc(Cl)cc(Cl)c3)(C(F)(F)F)C2)cc1C)c1ncc(Cl)cn1 (stereo not shown) [Compound 5-21]	0%	75.6%	77.8%	–	–	–	–
CC(=O)N(C(=O)c1ccc(C2=NOC(c3cc(Cl)cc(Cl)c3)(C(F)(F)F)C2)cc1C)c1ncc(Br)cn1 (stereo not shown) [Compound 5-22]	0%	82.2%	83.3%	–	–	–	–
Cc1cc(C2=NOC(c3cc(Cl)cc(Cl)c3)(C(F)(F)F)C2)ccc1C(=O)N(C(=O)C(C)C)c1ncc(Cl)cn1 (stereo not shown) [Compound 5-23]	0%	87.8%	94.4%	–	–	–	–
Cc1cc(C2=NOC(c3cc(Cl)cc(Cl)c3)(C(F)(F)F)C2)ccc1C(=O)N(C(=O)C1CC1)c1ncc(Cl)cn1 (stereo not shown) [Compound 5-24]	0%	84.4%	86.7%	–	–	–	–
COC(=O)N(COCC(F)(F)F)C(=O)c1ccc(C2=NOC(c3cc(Cl)cc(Cl)c3)(C(F)(F)F)C2)cc1C (stereo not shown) [Compound 5-25]	0%	75.6%	84.4%	–	–	–	–
COCN(C(=O)OC)C(=O)c1ccc(C2=NOC(c3cc(Cl)cc(Cl)c3)(C(F)(F)F)C2)cc1Br (stereo not shown) [Compound 5-26]	0%	77.8%	77.8%	–	–	–	–
COC(=O)N(COC(C)C)C(=O)c1ccc(C2=NOC(c3cc(Cl)cc(Cl)c3)(C(F)(F)F)C2)cc1C (stereo not shown) [Compound 5-27]	12.2%	72.2%	84.4%	–	–	–	–
COCN(C(=O)c1ccc(C2=NOC(c3cc(Cl)cc(Cl)c3)(C(F)(F)F)C2)cc1C)c1ncc(Cl)cn1 (stereo not shown) [Compound 5-28]	1.1%	70%	71.1%	–	–	–	–
COCN(C(=O)OC)C(=O)c1ccc(C2=NOC(c3cc(Cl)cc(Cl)c3)(C(F)(F)F)C2)cc1I (stereo not shown) [Compound 5-29]	0%	68.9%	68.9%	–	–	–	–
CC(=O)N(C(=O)c1ccc(C2=NOC(c3cc(Cl)cc(Cl)c3)(C(F)(F)F)C2)cc1C)c1ncc(C#N)cn1 (stereo not shown) [Compound 5-30]	2.2%	67.8%	68.9%	–	–	–	–
COC(=O)N(C(=O)c1ccc(C2=NOC(c3cc(Cl)cc(Cl)c3)(C(F)(F)F)C2)cc1C)c1ncc(C#N)cn1 (stereo not shown) [Compound 5-31]	0%	65.6%	65.6%	–	–	–	–
CC(=O)N(C(=O)c1ccc(C2=NOC(c3cc(Cl)cc(Cl)c3)(C(F)(F)F)C2)cc1C)c1cnccn1 (stereo not shown) [Compound 5-32]	0%	70%	71.1%	–	–	–	–

SMILES	pest or weed control at 20 mg/kg [1]	pest or weed control at 20 mg/kg [2]	pest or weed control at 20 mg/kg [3]	pest or weed control at 20 mg/kg (1 h)	pest or weed control at 20 mg/kg (24 h)	pest or weed control at 20 mg/kg (48 h)	Flea inhibition relative to negative control [4]
CON=CNC(=O)c1ccc(C2=NOC(c3cc(Cl)c(Cl)c(Cl)c3)(C(F)(F)F)C2)cc1C (stereo not shown) [Compound 5-33]	0%	100%	100%	–	–	–	–
O=C(CNC(=O)c1ccc(C2=NOC(c3cc(C(F)(F)F)cc(C(F)(F)F)c3)(C(F)(F)F)C2)cc1)NCC(F)(F)F (stereo not shown) [Compound 5-34]	2.3%	96.6%	96.6%	–	–	–	–
CC(NC(=O)c1ccc(C2=NOC(c3cc(Cl)c(Cl)c(Cl)c3)(C(F)(F)F)C2)cc1)C(=O)NCC(F)(F)F (stereo not shown) [Compound 5-35]	0%	100%	100%	–	–	–	–
CO/N=C\NC(=O)c1ccc(C2=NO[C@@](c3cc(Cl)cc(Cl)c3)(C(F)(F)F)C2)cc1C [Compound 5-36]	45.7%	99%	99%	–	–	–	–
CCO/C(N)=N\C(=O)c1ccc(C2=NOC(c3cc(Br)cc(Br)c3)(C(F)(F)F)C2)cc1C (stereo not shown) [Compound 5-37]	7.7%	99%	100%	–	–	–	–
CCO/C(N)=N\C(=O)c1ccc(C2=NOC(c3cc(Cl)cc(Cl)c3)(C(F)(F)Cl)C2)cc1C (stereo not shown) [Compound 5-38]	2.3%	96.7%	97.7%	–	–	–	–
O=C(CNC(=O)c1ccc(C2=NOC(c3cc(Cl)c(Cl)c(C(F)(F)F)c3)(C(F)(F)F)C2)cc1)NCC(F)(F)F (stereo not shown) [Compound 5-39]	13.3%	99%	99%	–	–	–	–
Cc1cc(C2=NOC(c3cc(Cl)c(F)c(Cl)c3)(C(F)(F)F)C2)ccc1C(=O)NCC(=O)NCC(F)(F)F (stereo not shown) [Compound 5-40]	–	–	–	0%	85.6%	85.6%	–
Cc1cc(C2=NOC(c3cc(Cl)c(F)c(C(F)(F)F)c3)(C(F)(F)F)C2)ccc1C(=O)NCC(=O)NCC(F)(F)F (stereo not shown) [Compound 5-41]	0%	94.3%	95.6%	–	–	–	–
COC(=O)N(C(=O)c1ccc(C2=NOC(c3cc(Cl)cc(Cl)c3)(C(F)(F)F)C2)cc1C)c1ncc(Cl)cn1 (stereo not shown) [Compound 5-48]	–	91.1%	91.1%	–	–	–	–
CCO/N=C\NC(=O)c1ccc(C2=NOC(c3cc(Cl)cc(Cl)c3)(C(F)(F)F)C2)cc1C (stereo not shown) [Compound 5-50]	–	–	–	–	–	–	(27.7%)
COC(CNC(=O)c1ccc(C2=NOC(c3cc(Cl)cc(Cl)c3)(C(F)(F)Cl)C2)cc1C)OC (stereo not shown) [Compound 5-53]	0%	82.2%	91.1%	–	–	–	–
Cc1cc(C2=NOC(c3cc(Cl)cc(Cl)c3)(C(F)(F)F)C2)ccc1C(=O)NC(C)C(=O)NCC(F)(F)F (stereo not shown) [Compound 5-54]	–	–	–	–	–	–	5-47 (0%), 5-54 (0%),
Cc1cc(C2=NOC(c3cc(Cl)cc(Cl)c3)(C(F)(F)F)C2)ccc1C(=O)Nc1cncnc1 (stereo not shown) [Compound 5-55]	0%	92.2%	93.3%	–	–	–	–
CC(=O)N(C(=O)c1ccc(C2=NOC(c3cc(Cl)cc(Cl)c3)(C(F)(F)F)C2)cc1C)N(C)c1ccccc1 (stereo not shown) [Compound 5-57]	0%	86.7%	87.7%	–	–	–	–
Cc1cc(C2=NOC(c3cc(Cl)cc(Cl)c3)(C(F)(F)F)C2)ccc1C(=O)NC1CCCO1 (stereo not shown) [Compound 5-64]	50%	97.8%	97.8%	–	–	–	–
C#CCNC(=O)CNC(=O)c1ccc(C2=NOC(c3cc(Cl)cc(Cl)c3)(C(F)(F)F)C2)cc1C (stereo not shown) [Compound 5-67]	80%	100%	100%	–	–	–	–
Cc1cc(C2=NO[C@](c3cc(Cl)cc(Cl)c3)(C(F)(F)F)C2)ccc1C(=O)NCC(=O)NCC(F)(F)F [Compound 11-1R]	0%	0%	0%	–	–	–	–
CCNC(=O)CNC(=O)c1ccc(C2=NOC(c3cc(Cl)cc(Cl)c3)(C(F)(F)F)C2)cc1C (stereo not shown) [Compound 14-1]	97.8%	100%	100%	–	–	–	–
